Source: article PMC9741287, “Cytotoxic and Luminescent Properties of Novel Organotin Complexes with Chelating Antioxidant Ligand” (Molecules, 2022)
Values joined by “and” are separate entries in the source; they are usually repeats but may differ in a detail not shown here. Equal entries are not always repeated. Where two headings read alike, the source gives them in different places.

Key:
[1] = tested on: superoxide radical anion O2−• (xanthine-xanthine oxidase system); assay: NBT-test, superoxide generated in the xanthine-xanthine oxidase system; format: biochemical; details: for I (NBT-Test): 0.006 mL of 5 mM compound in DMSO per 0.3 mL well, 600 s, 560 nm, negative = stimulation
Text: Xanthine oxidase is molybdenum containing enzyme responsible for purine catabolism in the human organism. It is capable of xanthine oxidation, resulting in uric acid and superoxide radical anion as a side product. The latter one is well-known ROS, and the ability to neutralize it marks the compound as a perspective antioxidant. This is followed by the interaction of O2^−• and nitro-blue tetrazolium resulting in the cycle opening (Scheme 4), which is accompanied by the color change with λmax = 560 nm and can be monitored spectrophotometrically.
The influence of compounds on superoxide radical anion О2^−• generated in the enzymatic system xanthine-xanthine oxidase was estimated as the amount of nitro-blue tetrazolium (NBT) reduced to formazan. The assay was carried out in 96-well plates. The total volume of a single well was 0.3 mL and consisted of 0.27 mL of carbonate buffer (40 mM, pH 10.0) containing EDTA (0.1 mM), 0.006 mL of xanthine (10 mM) in carbonate buffer, 0.003 mL of 0.5% bovine serum albumin in water, 0.003 mL of NBT chloride (2.5 mM) in water, and 0.006 mL of a solution of the studied compound in DMSO (5 mM). Xanthine oxidase (0.012 mL, 0.004 units) in buffer was added to the mixture at rt to start the reaction and the absorption at λmax = 560 nm was recorded for 600 s. The control experiment was performed in the presence of 0.006 mL DMSO without a compound. All experiments were performed in triplicate.
Inhibition was expressed by the Equation (2):I (%) = (ν0/ν0′) × 100%,(2) where v0 and v0′ are initial rates of the enzymatic reaction in the presence and absence (control) of the compounds under study, respectively.
The initial rate (v0 and v0′) was calculated by the Equation (3):ν0 = ΔС/Δt = ΔA/(Δt × ε) = tgα/(Δt × ε),(3)
A1 is the absorbance in the presence of the testing compound at the end of the reaction (600 s), and A0 is the absorbance of the blank solution. ΔA is the difference between A1 and A0. All experiments were performed in triplicate.

[2] = tested on: MCF-7 (human breast cancer); assay: MTT-test MCF-7; format: cell-based
Procedure: (§1) Since the investigated compounds are designed as theranostic and cytostatic agents, their toxic impact was evaluated as a standard MTT-test. Cytotoxicity was studied on four cell lines, i.e.,—HCT116 (human colorectal carcinoma), MCF-7 (human breast cancer), A549 (human lung adenocarcinoma), and WI-38 (human fetal lung fibroblast). Obtained results appear to be unorthodox: as it is known, the introduction of an organotin moiety tends to noticeably increase compounds’ toxicity and more lipophilic ones do it better, but in the presented data pattern turns vice versa (Table 3).
(§2) HCT-116 (colon carcinoma), MCF-7 (breast adenocarcinoma), A-549 (lung adenocarcinoma) cell lines, and WI-38 (cell line composed of fibroblasts) were derived from The European Collection of Authenticated Cell Cultures (ECACC, Salisbury, UK), cultured in DMEM medium (Gibco™, Dublin, Ireland) supplemented with 10% fetal bovine serum (Gibco™, Brasilia, Brazil). The cells were cultured in an incubator at 37 °C in a humidified 5% CO2 atmosphere and subcultured two times a week.
(§3) The toxicity of compounds was studied on cultured cell lines according to standard MTT protocol.

[3] = DPPH-test (radical scavenging); details: for Quantity of Reduced DPPH after 20 h: DPPH 0.2 mM + test compound 0.2 mM in EtOH, equal volumes, 517 nm
Text: 2,2-Diphenyl-1-picrylhydrazyl (DPPH)—is a stable N-centered chromophore radical with absorption peak λmax = 517 nm, while its reduced form is pale yellow. Its reduction can be monitored spectrophotometrically and is a well-known and convenient way of evaluating radical scavenging activity. […] This may be caused by the participation not of only the sterically hindered phenolic group in the process of radical scavenging, but salicylic phenolic group and probably hydrazide fragment as well. The abovementioned structural moieties participate in the coordination of tin atoms, and therefore are excluded from the mechanism of antioxidant action of complexes. […] The introduction of tin is known to lower the radical scavenging capacity of corresponding ligands and is estimated as referred previously. The only exception is complex 7, bearing two 2,6-di-tert-butylphenols pendants attached directly to the tin.
The activity of synthesized compounds as radical scavengers was estimated spectrophotometrically at λmax = 517 nm using stable radical 2,2-diphenyl-1-picrylhydrazyl (Sigma-Aldrich) according to the known procedure. The reaction mixture contained DPPH (0.75 mL, 0.2 mM) and a solution of the test compound in EtOH (0.75 mL, 0.2 mM), and was put in 1 cm glass cuvettes. The measurements were carried out for 20 h and the results were calculated using Microsoft Excel 2010. Antioxidant activity was expressed as the percentage of reduced DPPH according to the Equation (1):I (%) = ((A0 − A1)/A0) × 100(1) where A0 is the absorbance of the control 0.1 mM DPPH in EtOH, ε DPPH = 1.15·× 10^4, and A1 is the absorbance of the reaction mixture in the presence of the test compound.

[4] = tested on: A549 (human lung adenocarcinoma); assay: MTT-test A549; format: cell-based
Procedure: as §1, §2, §3

[5] = tested on: WI-38 (human fetal lung fibroblast); assay: MTT-test WI-38; format: cell-based
Procedure: as §1, §2, §3

[6] = Luminescence / photophysical properties; format: physicochemical; details: for Quantum Yield, DMSO Solution 10 µM / Quantum Yield, DMSO Solution 100 µM / Quantum Yield, DMSO Solution 1000 µM / Quantum Yield, Powders: λex = 365 nm; for ε (λmax): at absorption λmax; for Luminosity (λmax): at λmax; for Quantum Yield, Powders: solid (compound 4 is an oil)
Procedure: Their quantum yields reached 20%, which together with their high absorption (Table 4) makes them highly emissive even in powders.
The registration of luminescence spectra of powders and solutions in the visible range as well as the measurement of quantum yields were carried out with Horiba FluoroMax Plus, with xenon lamp as excitation source at room temperature; excitation was performed through a ligand (λex = 365 nm). The quantum yield was measured by the absolute method in the integrating sphere.

CC(C)(C)c1cc(C(=O)N/N=C/c2ccccc2O)cc(C(C)(C)C)c1O [Compound 1, Di-tert-butyl-4-hydroxy-N′-(2-hydroxybenzylidene)-benzohydrazine]
I (NBT-Test) [1]: 0.5 ± 0.1%
IC50 ([2]; Homo sapiens, MCF7): 4.7 ± 0.8 µM
EC50 [3]: 163 µM
IC50 ([4]; Homo sapiens, A549): 2.2 ± 0.4 µM
IC50 ([5]; Homo sapiens, WI-38): 6.6 ± 1.2 µM

CC(C)(C)c1cc(C2=NN=Cc3ccccc3[O][Sn]([CH3])([CH3])[O]2)cc(C(C)(C)C)c1O [Compound 2, Me2SnL]
I (NBT-Test) [1]: 6.3 ± 1.8%
IC50 [2]: 5.2 ± 1 µM
Quantity of Reduced DPPH after 20 h [3]: 35.2 ± 1.9%
IC50 [4]: 2.2 ± 0.7 µM
λmax (absorption) [6]: 403 nm
Quantum Yield, DMSO Solution 10 µM [6]: 17 ± 3%
Quantum Yield, DMSO Solution 100 µM [6]: 56 ± 1%
Quantum Yield, DMSO Solution 1000 µM [6]: 39% and 39 ± 3%
ε (λmax) [6]: 13,070 M^−1·cm^−1
Luminosity (λmax) [6]: 771,130, (403) M^−1·cm^−1
Quantum Yield, Powders [6]: 14 ± 2%
Luminosity (λ = 365 nm) [6]: 508,403 M^−1·cm^−1
ε (λ = 365 nm) [6]: 8617 M⁻¹ cm⁻¹
IC50 [5]: 9.5 ± 3.1 µM

CC(C)(C)c1cc(C2=NN=Cc3ccccc3[O][Sn]([C](C)(C)C)([C](C)(C)C)[O]2)cc(C(C)(C)C)c1O [Compound 5, Bu^t2SnL]
I (NBT-Test) [1]: 5.9 ± 1.5%
IC50 [2]: 50.4 ± 12.6 µM
Quantity of Reduced DPPH after 20 h [3]: 26.5 ± 1.7%
IC50 [4]: 43 ± 10 µM
λmax (absorption) [6]: 412 nm
Quantum Yield, DMSO Solution 10 µM [6]: 20 ± 2%
Quantum Yield, DMSO Solution 100 µM [6]: 37 ± 1%
Quantum Yield, DMSO Solution 1000 µM [6]: 29 ± 2%
ε (λmax) [6]: 9920 M⁻¹ cm⁻¹
Quantum Yield, Powders [6]: 8 ± 1%
Luminosity (λ = 365 nm) [6]: 206,360 M^−1·cm^−1
ε (λ = 365 nm) [6]: 3080 M⁻¹ cm⁻¹
IC50 [5]: 26.3 ± 11.3 µM

CCC[CH2][Sn]1([CH2]CCC)[O]C(c2cc(C(C)(C)C)c(O)c(C(C)(C)C)c2)=NN=Cc2ccccc2[O]1 [Compound 4, Bu2SnL]
I (NBT-Test) [1]: −4.6 ± 1.2%
IC50 [2]: 1.01 ± 0.4 µM
Quantity of Reduced DPPH after 20 h [3]: 50.5 ± 2.8%
IC50 [4]: 14.5 ± 4.5 µM
λmax (absorption) [6]: 409 nm
Quantum Yield, DMSO Solution 10 µM [6]: 41 ± 3%
Quantum Yield, DMSO Solution 100 µM [6]: 67% and 66 ± 2%
Quantum Yield, DMSO Solution 1000 µM [6]: 36 ± 3%
ε (λmax) [6]: 5950 M⁻¹ cm⁻¹
Luminosity (λmax) [6]: 398,650, (409) M^−1·cm^−1
Quantum Yield, Powders [6]: 4 ± 3%
Luminosity (λ = 365 nm) [6]: 146,127 M^−1·cm^−1
ε (λ = 365 nm) [6]: 2181 M⁻¹ cm⁻¹
IC50 [5]: 10.8 ± 3.5 µM

CC(C)(C)c1cc(C2=NN=Cc3ccccc3[O][Sn]([c]3ccccc3)([c]3ccccc3)[O]2)cc(C(C)(C)C)c1O [Compound 6, Ph2SnL]
O2−• scavenging in NBT-test [1]: stimulate O2^−· formation instead of inhibiting it
I (NBT-Test) [1]: −28.0 ± 3.6%
IC50 [2]: 26.3 ± 3.5 µM
Quantity of Reduced DPPH after 20 h [3]: 47.4 ± 2.7%
IC50 [4]: 20.2 ± 4 µM
λmax (absorption) [6]: 393 nm
Quantum Yield, DMSO Solution 10 µM [6]: 25 ± 2%
Quantum Yield, DMSO Solution 100 µM [6]: 67 ± 2%
Quantum Yield, DMSO Solution 1000 µM [6]: 26 ± 2%
ε (λmax) [6]: 13,450 M^−1·cm^−1
Quantum Yield, Powders [6]: 6 ± 2%
Luminosity (λ = 365 nm) [6]: 333,370 M^−1·cm^−1
ε (λ = 365 nm) [6]: 9010 M⁻¹ cm⁻¹
IC50 [5]: 52.6 ± 14.6 µM

C[CH2][Sn]1([CH2]C)[O]C(c2cc(C(C)(C)C)c(O)c(C(C)(C)C)c2)=NN=Cc2ccccc2[O]1 [Compound 3, Et2SnL]
I (NBT-Test) [1]: 7.3 ± 2.0%
IC50 [2]: 3.7 ± 0.5 µM
Quantity of Reduced DPPH after 20 h [3]: 41.3 ± 2.1%
IC50 [4]: 1.5 ± 0.5 µM
λmax (absorption) [6]: 410 nm
Quantum Yield, DMSO Solution 10 µM [6]: 17 ± 2%
Quantum Yield, DMSO Solution 100 µM [6]: 45 ± 1%
Quantum Yield, DMSO Solution 1000 µM [6]: 30 ± 2%
ε (λmax) [6]: 14,020 M^−1·cm^−1
Luminosity (λmax) [6]: 658,940, (410) M^−1·cm^−1
Quantum Yield, Powders [6]: 14 ± 2%
Luminosity (λ = 365 nm) [6]: 210,983 M^−1·cm^−1
ε (λ = 365 nm) [6]: 4489 M⁻¹ cm⁻¹
IC50 [5]: 5.8 ± 1.5 µM

CC(C)(C)c1cc(C2=NN=Cc3ccccc3[O][Sn]([c]3cc(C(C)(C)C)c(O)c(C(C)(C)C)c3)([c]3cc(C(C)(C)C)c(O)c(C(C)(C)C)c3)[O]2)cc(C(C)(C)C)c1O [Compound 7, (2,6-Di-tert-butylphenol)2SnL]
O2−• scavenging in NBT-test [1]: stimulate O2^−· formation instead of inhibiting it
I (NBT-Test) [1]: −40.5 ± 4.2%
IC50 [2]: 32.7 ± 9.5 µM
EC50 [3]: 12.8 µM
IC50 [4]: 31.9 ± 5.7 µM
λmax (absorption) [6]: 402 nm
Quantum Yield, DMSO Solution 10 µM [6]: 21 ± 2%
Quantum Yield, DMSO Solution 100 µM [6]: 42 ± 1%
Quantum Yield, DMSO Solution 1000 µM [6]: 32 ± 2%
ε (λmax) [6]: 13,270 M^−1·cm^−1
Luminosity (λmax) [6]: 557,340, (402) M^−1·cm^−1
Quantum Yield, Powders [6]: 20% and 20 ± 2%
Luminosity (λ = 365 nm) [6]: 294,084 M^−1·cm^−1
ε (λ = 365 nm) [6]: 7002 M⁻¹ cm⁻¹
IC50 [5]: 10.6 ± 3.5 µM
